The text below walks through data of paper PMC11637378, “Optogenetic screening of MCT1 activity implicates a cluster of non-steroidal anti-inflammatory drugs (NSAIDs) as inhibitors of lactate transport” (PLOS ONE, 2024).

As usually defined, the pIC50 is the IC50 on a negative log10 scale, so that one unit is a factor of ten. Usually viability stands for a read-out of living cells in per cent, often relative to untreated cells. The pKi is the negative decadic logarithm of the Ki, by convention in mol/L.

One data set concerns Δjen1 EV. In words: Growth with lactate as sole carbon source, Δjen1 carrying empty vector (EV) control. It is filed as cell-based, Saccharomyces cerevisiae.
In another data set the test system is MCT1. Particulars: cited from earlier work.
The conditions of data set [1]: patients with advanced cancer; dose-limiting toxicity relating to retinopathy at higher concentrations; cited from earlier work.
In the next data set the test system is SAWy710 (EV). In words: High throughput assay validation, empty vector (EV) control strain SAWy710, AZD versus DMSO. The format is cell-based, Saccharomyces cerevisiae. To be noted: individual wells 1-16, listed as AZD.
The target in another data set is MCT1 (wildtype) (UniProt P36035+P53987). In words: Growth with lactate as sole carbon source, by4741 Δjen1 expressing wild-type MCT1.
Chain of MCT1 (wildtype) (P36035+P53987 fused): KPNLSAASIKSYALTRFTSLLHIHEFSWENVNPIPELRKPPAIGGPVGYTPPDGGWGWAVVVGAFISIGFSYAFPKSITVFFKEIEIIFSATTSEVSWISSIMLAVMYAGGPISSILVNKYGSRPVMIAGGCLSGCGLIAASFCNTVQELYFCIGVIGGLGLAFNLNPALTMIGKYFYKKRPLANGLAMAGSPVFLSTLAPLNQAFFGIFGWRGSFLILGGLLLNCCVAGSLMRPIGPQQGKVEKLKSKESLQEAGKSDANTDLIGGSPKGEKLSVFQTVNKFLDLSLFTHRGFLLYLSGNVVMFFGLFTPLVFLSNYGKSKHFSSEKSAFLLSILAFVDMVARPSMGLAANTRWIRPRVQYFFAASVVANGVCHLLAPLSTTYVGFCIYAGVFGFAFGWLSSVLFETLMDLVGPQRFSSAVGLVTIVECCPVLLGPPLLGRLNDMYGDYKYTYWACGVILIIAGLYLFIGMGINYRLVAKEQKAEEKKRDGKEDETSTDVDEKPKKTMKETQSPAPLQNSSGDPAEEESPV
For another data set, the target named is MCT1 (F360C) (UniProt P36035+P53987, F360C). In words: Growth with lactate as sole carbon source, by4741 Δjen1 expressing MCT1(F360C). To be noted: for growth curve reading, single replicate / growth curve reading, mean of 4 replicates: Δjen1 MCT1(F360C).
Chain of MCT1 (F360C) (P36035+P53987 fused P53987:F360C): as the sequence (P36035+P53987 fused) above, with F398C counted along it
Data set [2] has as its system parent strain (SAWy518). In words: microbe, parasite or virus in culture. The arrangement: species or system Saccharomyces cerevisiae SAWy518; Off-target growth counter-screen, OD600 as per cent of untreated wells, strain lacking MCT1. Particulars: 18.5 h; sheet Primary Screen - final;; off-target growth of parent strain, about 18 h.
For data set [3], the target named is neurokinin 1 (NK1) receptor. Particulars: library annotation; cited from earlier work.
Data set [4] concerns the target neurokinin 1 (NK1) receptor. Set-up: method as in not given. Particulars: library annotation; ref not given; cited from earlier work.
In data set [5] the test system is parent strain (SAWy518).
For data set [6], the target named is neurokinin 1 (NK1) receptor. Particulars: library annotation; cited from earlier work. The source holds these as a separate data set.
The next data set has as its system tumor growth. To be noted: cited from earlier work.
The subject of data set [7] is MCT4. To be noted: HAP1 cells; NOTES column annotation; cited from earlier work.
Another data set relates to cancer cell growth. Particulars: 10 μM, administered alone; cited from earlier work.
In data set [8] the test system is MCT4. To be noted: HAP1 cells, library annotation; cited from earlier work.
For data set [9], the system named is survivin. To be noted: NOTES column annotation; cited from earlier work.
In data set [10] the test system is survivin. To be noted: library annotation; cited from earlier work.
Data set [11] has as its system survivin. To be noted: library annotation; cited from earlier work. The source holds these as a separate data set.

pIC50, pKi: −log10 of the molar value. Several values for one entry are separate records, joined by “and”; a condition that tells them apart may be missing. Identical values can stand only once. Like-named read-outs stand apart in the source and are kept apart here.

On to `Cc1[nH]nc(C(F)(F)F)c1Cc1sc2c(c1C(=O)N1C[C@](C)(O)CO1)c(=O)n(C)c(=O)n2C(C)C` [AZD3965], for which the “growth curve reading, single replicate” value was 0.1091 and 0.1160 and 0.1215 and 0.1310 in the data set with Δjen1 EV (T1, time 19); 0.1392 and 0.1432 and 0.1501 in the data set with Δjen1 EV (T2, time 21); 0.1257 and 0.1403 and 0.1504 with Δjen1 EV (T3, time 25); 0.1322 and 0.1452 and 0.1564 and 0.1709 in the data set with Δjen1 EV (T4, time 27.5); 0.1444 and 0.1533 and 0.1681 and 0.1884 with Δjen1 EV (T5, time 43); 0.1453 and 0.1535 and 0.1657 and 0.1862 in the data set on Δjen1 EV (T6, time 45.5). The “growth curve reading, single replicate” value in the data set with Δjen1 EV (T7, time 48) was 0.1464 and 0.1540 and 0.1668 and 0.1877; on MCT1 (wildtype) (Δjen1 MCT1, T0, time 0), 0.0402; at MCT1 (wildtype) (Δjen1 MCT1, T1, time 19), 0.1316 and 0.1252 and 0.1281 and 0.1266; at MCT1 (wildtype) (Δjen1 MCT1, T2, time 21), 0.1442 and 0.1394 and 0.1417 and 0.1396; on MCT1 (wildtype) (Δjen1 MCT1, T3, time 25) it was 0.1656 and 0.1622 and 0.1633 and 0.1608; on MCT1 (wildtype) (Δjen1 MCT1, T4, time 27.5), 0.1778 and 0.1729 and 0.1762. Further, the “growth curve reading, single replicate” value at MCT1 (wildtype) (Δjen1 MCT1, T5, time 43) was 0.2083 and 0.2030 and 0.2026 and 0.2041; at MCT1 (wildtype) (Δjen1 MCT1, T6, time 45.5) it was 0.2171 and 0.2098 and 0.2095 and 0.2126; at MCT1 (wildtype) (Δjen1 MCT1, T7, time 48) it was 0.2154 and 0.2089 and 0.2128 and 0.2107; at MCT1 (F360C) (T0, time 0), 0.0403; at MCT1 (F360C) (T1, time 19) it was 0.1093 and 0.1204 and 0.1196 and 0.1290; on MCT1 (F360C) (T2, time 21) it was 0.1288 and 0.1364 and 0.1335. Further, the “growth curve reading, single replicate” value at MCT1 (F360C) (T3, time 25) was 0.1550 and 0.1804 and 0.1853 and 0.2001; on MCT1 (F360C) (T4, time 27.5), 0.1660 and 0.1913 and 0.2008 and 0.2152; at MCT1 (F360C) (T5, time 43), 0.1991 and 0.2285 and 0.2378 and 0.2578; at MCT1 (F360C) (T6, time 45.5) it was 0.2030 and 0.2318 and 0.2431 and 0.2629; on MCT1 (F360C) (T7, time 48), 0.2036 and 0.2334 and 0.2458 and 0.2644. The “growth curve reading, mean of 4 replicates” value (shortened to “growth curve reading, mean”) in the data set on Δjen1 EV (time 19) was found to be 0.1194; in the data set on Δjen1 EV (time 21), 0.1435; in the data set with Δjen1 EV (time 25), 0.1449; in the data set on Δjen1 EV (time 27.5), 0.1512; with Δjen1 EV (time 43) it was 0.1636; in the data set on Δjen1 EV (time 45.5), 0.1627. In addition, the “growth curve reading, mean” value in the data set with Δjen1 EV (time 48) stood at 0.1637; at MCT1 (wildtype) (Δjen1 MCT1, time 0) it was 0.0402; at MCT1 (wildtype) (Δjen1 MCT1, time 19), 0.1279; on MCT1 (wildtype) (Δjen1 MCT1, time 21), 0.1412; on MCT1 (wildtype) (Δjen1 MCT1, time 25) it was 0.1630; on MCT1 (wildtype) (Δjen1 MCT1, time 27.5), 0.1750. For the same molecule, the “growth curve reading, mean” value amounted to 0.2045 at MCT1 (wildtype) (Δjen1 MCT1, time 43); 0.2122 on MCT1 (wildtype) (Δjen1 MCT1, time 45.5); 0.2120 at MCT1 (wildtype) (Δjen1 MCT1, time 48); 0.0403 at MCT1 (F360C) (time 0); 0.1196 at MCT1 (F360C) (time 19); 0.1338 on MCT1 (F360C) (time 21). The “growth curve reading, mean” value is given as 0.1802 at MCT1 (F360C) (time 25); 0.1933 at MCT1 (F360C) (time 27.5); 0.2308 at MCT1 (F360C) (time 43); 0.2352 on MCT1 (F360C) (time 45.5); 0.2368 on MCT1 (F360C) (time 48). The pIC50 in the data set on MCT1 (read-out: previously reported IC50 value) is 8.29. In addition, in data set [1], the “tolerability in phase-1 clinical trial” value is recorded as “relatively well tolerated”. Besides, the OD600 in the data set on SAWy710 (EV) (Condition non, Replicate1, EV strain SAWy710, 10 µM AZD) was 0.1411 and 0.1378 and 0.134 and 0.1369 and 0.1383 and 0.1317 and 0.135 and 0.1363 and 0.1403 and 0.1392 and 0.1365 and 0.1389 and 0.1394 and 0.149; in the data set on SAWy710 (EV) (Condition non, Replicate2, EV strain SAWy710, 10 µM AZD), 0.1384 and 0.1406 and 0.1366 and 0.135 and 0.1021 and 0.1315 and 0.1407 and 0.1329 and 0.1336 and 0.1393 and 0.1343 and 0.134 and 0.138 and 0.1378 and 0.1431; in the data set with SAWy710 (EV) (Condition perm, Replicate1, EV strain SAWy710, 10 µM AZD) it was 0.7718 and 0.7777 and 0.7776 and 0.7734 and 0.7269 and 0.7398 and 0.7671 and 0.7655 and 0.7645 and 0.774 and 0.768 and 0.7629 and 0.759 and 0.7698 and 0.7556 and 0.7591; in the data set on SAWy710 (EV) (Condition perm, Replicate2, EV strain SAWy710, 10 µM AZD), 0.1774 and 0.1728 and 0.1654 and 0.1606 and 0.1374 and 0.1596 and 0.1712 and 0.1673 and 0.1713 and 0.168 and 0.1743 and 0.17 and 0.1727 and 0.1704 and 0.1842. Also, the “growth in media with lactate as the sole carbon source” value on MCT1 (wildtype) (wildtype MCT1, AZD3965 10 μM, 0.5% lactate (S5 Fig)) was “inhibited growth”; at MCT1 (F360C) (MCT1 F360C, AZD3965 10 μM, 0.5% lactate (S5 Fig)) it was “inhibited growth”.

Consider `Cc1ccccc1-c1cc(N2CCN(C)CC2)ncc1N(C)C(=O)C(C)(C)c1cc(C(F)(F)F)cc(C(F)(F)F)c1` [Netupitant], for which the viability at 10 µM in the data set on parent strain (SAWy518) [2] was found to be 103%. In addition, the pKi in [3] is 9.02. Besides, in data set [4], the pKi is 9.02. In the data set with parent strain (SAWy518) [5], the OffScreen_percentage came out at 103.271 percentage, the Offscreen_18hr is listed as 0.8334, the Offscreen_24hr came out at 0.9137 and the Offscreen_42hr is reported as 0.9839. Moreover, the Read_percentage in the data set on parent strain (SAWy518) [5] worked out at 103.271 percentage. For the same molecule, the negative-log Ki (pKi) in data set [6] was 9.02.

On to `CCOC(=O)Oc1c(OC)cc(C(=O)O[C@@H]2C[C@@H]3CN4CCc5c([nH]c6cc(OC)ccc56)[C@H]4C[C@@H]3[C@H](C(=O)OC)[C@H]2OC)cc1OC` [Syrosingopine], for which the “tumor growth in in vivo cancer models” value in the data set with tumor growth (alone versus paired with metformin) is “only effective in reducing tumor growth when paired with the mitochondrial oxidative phosphorylation inhibitor metformin”. Moreover, the “dose required to inhibit tumor growth in mice” value in the data set on tumor growth (mice) was 7.5 mg/kg. The viability at 10 µM with parent strain (SAWy518) [2] came to 92.3%. In addition, the negative-log IC50 (pIC50) with MCT4 [7] was 7.40. In addition, the pIC50 in the data set on MCT1 (HAP1 cells, library annotation, read-out: IC50 MCT1) was 5.60. Moreover, the “in vitro cancer cell growth” value in the data set on cancer cell growth is given as “inhibit in vitro cancer cell growth”. Further, the pIC50 with MCT4 [8] is 7.40. For the same molecule, in the data set on parent strain (SAWy518) [5], the OffScreen_percentage came to 92.2553 percentage, the Offscreen_18hr was 0.7445, the Offscreen_24hr was determined as 0.7958 and the Offscreen_42hr is listed as 0.9268. In the data set with parent strain (SAWy518) [5], the Read_percentage is 92.2553.

Regarding YM155, the pIC50 in the data set with survivin [9] was 9.27. In addition, the pIC50 in the data set with survivin [10] is 9.27. Moreover, in the data set with parent strain (SAWy518) [5], the OffScreen_percentage is listed as 103.73 percentage, the Offscreen_18hr was 0.8371, the Offscreen_24hr was found to be 0.9154 and the Offscreen_42hr amounted to 0.9694. The Read_percentage in the data set on parent strain (SAWy518) [5] is 103.73. Further, the negative logarithm of the IC50 (pIC50) in the data set with survivin [11] is 9.27.
